Assays:
HAE = experiment: DIG-labeled DsiRNA entry and uptake into HAE (confocal imaging); type: cell-based, human; settings: PAF-treated HAE, 1 hour after transduction with Transductin, compared with control HAE
Procedure: FIG. 2. PAF treatment enhances DsiRNA entry and uptake into cells. […] Blue, nuclei; green, DIG-labeled oligo. The images on the right and the left are from different fields.
The primary human airway epithelia grown at the air-liquid interface were transfected with the DIG-labeled DsiRNA at a concentration of 250 nM after complexing with Transductin. The transfection mixture was left on the apical surface for 1 h. At the end of this period, the cells were fixed in 2% formaldehyde, permeabilized in 0.2% Triton-x-100 and blocked in 1% BSA for 1 h. The cells were then stained with mouse antibody to DIG (Roche Biochemicals, Indianapolis, Ind.) for 1 h, followed by Alexa 488 labeled goat anti-mouse secondary antibody for 1 h, and then Alexa 488 labeled rabbit anti-mouse tertiary antibody (Life Technologies, Carlsbad, Calif.). In some cases an Alexa 564 goat anti-mouse secondary antibody was used. The cells were finally stained with nuclear stain, ToPro 3 for 10 minutes. The filter, containing the cells, was removed from the culture insert by cutting the edges with razor blade, and mounted on a slide with Vectashield (Vector Laboratories Inc, Burlingame, Calif.). The cells were visualized by confocal microscopy (Bio-Rad Radience 2100MP Multiphoton/Confocal Microscope, Bio-Rad, Hercules, Calif.).

CFTR protein = CFTR protein levels, immunoprecipitation and immunoblot with densitometry in HAE; type: cell-based, human
Procedure: (§1) FIG. 4. […] Alternatively, spiperone was applied apically and basolaterally to well-differentiated HAE for 6 hours, and then removed by rinsing before incubation for 4 hours with CFTR-targeting or NC1 DsiRNAs complexed with Transductin. In both cases, 24 hours after transfection, and RNA levels quantified by RT-qPCR. (b) A representative immunoblot from similarly treated wells, but cells were lysed and proteins visualized after immunoprecipitation with anti-CFTR antibody. Alpha-tubulin was used as a loading control. (c) Densitometry readings of immunoblots with results normalized to NC1 treated samples. In all cases, data are from 3 biological replicates and are mean±SD. ***p<0.001, **p<0.01 (Student's t-test).
HAE were rinsed with PBS and lysed in RIPA buffer (1% NP-40, 0.5% sodium deoxycholate, 0.1% SDS, 50 mM Tris, protease inhibitors [complete; mini, EDTA-free; Roche Biochemicals, Indianapolis, Ind.]) for 30 minutes at 4° C. The lysate were centrifuged in a table top centrifuge at 14,000 rpm for 20 minutes at 4° C. The supernatant was quantified by BCA protein assay kit (Pierce, Rockford, Ill.). Thirty micrograms of protein per lane was separated on a 10% Tris-HCL Criterion precast gel (Bio-Rad, Hercules, Calif.) for western blot analysis. The protein was transferred to Polyvinylidene difluoride membrane and then was probed with goat anti-RSV antibody purchased from Meridian Life Sciences (Memphis, Tenn.). The membrane was imaged, and then stripped with Restore Western Blot Stripping Buffer (Thermo Scientific, Lafayette, Colo.) for 15 minutes. The membrane was rinsed with Tris-buffered saline-Tween (TBS-T) and blocked in 5% bovine serum albumin (Research Products International Corp, Mt. Prospect, Ill.). The membrane was then reprobed with α-tubulin (Sigma-Aldrich).

RSV N and P protein = experiment: RSV protein immunoblot in infected HAE; type: cell-based, Respiratory Syncytial Virus; settings: PAF with RSV N DsiRNA; immunoblot 48 hours after infection
Source text: FIG. 6. […] HAE was either treated or untreated with PAF in concurrence with RSV N DsiRNA. Six hours later the cells were infected with RSV at an MOI of 1. Forty eight hours later, the cell washings from the apical surface was collected and assayed for viral titer (a). The cells were lysed and the proteins visualized after immunoprecipitation with anti-RSV antibodies (b) and the bands quantified by densitometry (c). Data are mean±SD from the results three different experiments, each using a different donor. ***p<0.001 (Student's t-test).
RSV infection of HAE for both for immunoblot and viral titer was done at an MOI of 1. The virus was thawed at 37° C. and diluted in MEM (0% FCS) to a volume of 70 μl (1MOI)/well. The cells in Millicell filters were rinsed with the same media once and the virus applied to the apical surface. The plate was incubated at 37° C. for a period of 2 hours. After the incubation period, the virus inoculum was rinsed with MEM three times to remove any traces of the virus. The plates were then incubated at 37° C. until used for the assay.
HAE were rinsed with PBS and lysed in RIPA buffer (1% NP-40, 0.5% sodium deoxycholate, 0.1% SDS, 50 mM Tris, protease inhibitors [complete; mini, EDTA-free; Roche Biochemicals, Indianapolis, Ind.]) for 30 minutes at 4° C. […] The supernatant was quantified by BCA protein assay kit (Pierce, Rockford, Ill.). […]

Human CFTR mRNA = experiment: CFTR mRNA silencing by CFTR DsiRNA-Transductin in well-differentiated HAE (RT-qPCR); type: cell-based; settings: CFTR DsiRNA with simultaneous PAF treatment or spiperone pre-treatment
Procedure: as §1
For well-differentiated airway epithelia, transfection was performed mostly according to the manufacturer's protocol. […]
Total RNA was isolated using SV96 RNA isolation kit (Promega, Madison, Wis.), according to manufacturer's protocol. […] One-fifteenth of the cDNA was then amplified and analyzed by using the 5′-nuclease assay in a 7900 Real Time PCR System (Applied Biosystems, Foster city, CA) using primer-probe pairs reaction buffer and Immolase DNA polymerase (Bioline, Taunton, Mass.). […] Absolute quantification of an mRNA target sequence within an unknown sample was determined by reference to a standard curve. […]

## platelet activating factor [PAF]
HAE
  amount of internalized DIG-labeled DsiRNA: substantial increase in the amount of internalized label
CFTR protein; PAF or spiperone and CFTR DsiRNA-Transductin, immunoprecipitation, western blot
  CFTR protein levels compared to controls: reduced CFTR protein levels
CFTR protein; densitometry, normalized to NC1 treated samples
  fully glycosylated CFTR band C: significantly decreased
RSV N and P protein
  RSV N and P protein abundance compared to untreated control cells: reduced
Human CFTR mRNA
  silencing of CFTR mRNA levels: approximately 30%

From patent publication US9987299B2, “Methods of improving RNAi in well-differentiated airway epithelia” (University of Iowa Research Foundation, priority 2014, dated 2018)
